Target: T1, IRAK3-ePL (Homo sapiens, UniProt Q9Y616)
T1 construct: expressed in transfected cells; host or cells: 293T CRBN OE/GSPT1 G575N KI cells, lentiviral transduction, puromycin selected
Test: IRAK3-ePL overexpressing degradation assay (InCELL Hunter luminescence, dose response)
Assay type: cell-based
Details: for IRAK3 ePL degradation Ymin: lowest percentage of target protein remaining following compound treatment; for DC50: read-out: IRAK3 ePL degradation EC50
Summary of the method: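 Lenti-X 293T CRBN/GSPT1 G575N cells stably expressing IRAK3-ePL (5,000/well) treated overnight at 37° C with 10-point 3-fold dilutions from 10 μM, 0.2% DMSO. InCELL Hunter luminescence, background subtracted using Ataluren wells and normalized to DMSO; EC50 from four-parameter logistic fit.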

Row | SMILES | IRAK3 ePL degradation Ymin [%] | DC50 [nM]
1 | Cc1cc(-c2cnc(Nc3cnn(C4CCN(CCN5CCN(c6cccc(C7CCC(=O)NC7=O)c6)CC5)CC4)c3)c3nccn23)c(F)cc1F (stereo not drawn) [Compound 31, 3-(3-(4-(2-(4-(4-((5-(2,4-difluoro-5-methylphenyl)imdazo [1,2-a]pyrazin-8-yl)amino)-1H-pyrazol-1-yl)piperidin-1-yl)ethyl)piperazin-1-yl)phenyl) piperidine-2,6-dione] | 44 | 38
2 | Cc1cccc(-c2cnc(Nc3cnn(C4CCN(CCN5CCN(c6ccc7c(c6)C(=O)N(C6CCC(=O)NC6=O)C7=O)CC5)CC4)c3)c3nccn23)c1 (stereo not drawn) [Compound 2, 2-(2,6-dioxopiperidin-3-yl)-5-(4-(2-(4-(4-((5-(m-tolyl)imidazo[1,2-a]pyrazin-8-yl)amino)-1H-pyrazol-1-yl)piperidin-1-yl)ethyl)piperazin-1-yl)isoindoline-1,3-dione] | 15 | 3
3 | Cc1cc(-c2cnc(Nc3cnn([C@H]4CC[C@@H](CN5CCN(c6ccc(C7CCC(=O)NC7=O)cc6)CC5)CC4)c3)c3nccn23)c(F)cc1F (relative stereo) [Compound 71, 3-(4-(4-(((cis)-4-(4-((5-(2,4-difluoro-5-methylphenyl)imidazo[1,2-a]pyrazin-8-yl)amino)-1H-pyrazol-1-yl)cyclohexyl)methyl)piperazin-1-yl)phenyl) piperidine-2,6-dione] | 29 | 1.7
4 | Cc1cc(-c2cnc(Nc3cnn([C@H]4CCN(CCN5CCN(c6ccc(C7CCC(=O)NC7=O)cc6)C[C@H]5C)[C@@H](C)C4)c3)c3nccn23)c(F)cc1F (stereo partly drawn) [Compound 35, 3-(4-((R)-4-(2-((2S,4S)-4-(4-((5-(2,4-difluoro-5-methylphenyl)imdazo [1,2-a]pyrazin-8-yl)amino)-1H-pyrazol-1-yl)-2-methylpiperidin-1-yl)ethyl)-3-methylpiperazin-1-yl)phenyl) piperidine-2,6-dione] | 24 | 0.63
5 | Cc1cc(-c2cnc(Nc3cnn(C4CCN(CC(=O)N5CCN(c6ccc7c(c6)C(=O)N(C6CCC(=O)NC6=O)C7=O)CC5)CC4)c3)c3nccn23)c(F)cc1F (stereo not drawn) [Compound 6, 5-(4-(2-(4-(4-((5-(2,4-difluoro-5-methylphenyl)imidazo[1,2-a]pyrazin-8-yl)amino)-1H-pyrazol-1-yl)piperidin-1-yl)acetyl)piperazin-1-yl)-2-(2,6-dioxopiperidin-3-yl)isoindoline-1,3-dione] | 17 | 22
6 | Cc1cc(-c2cnc(Nc3cnn([C@H]4CCN(CCN5CCN(c6ccc(C7CCC(=O)NC7=O)cc6)CC5)C[C@@H]4F)c3)c3nccn23)c(F)cc1F (stereo partly drawn) [Compound 72, 3-(4-(4-(2-((3S,4S)-4-(4-((5-(2,4-difluoro-5-methylphenyl)imdazo [1,2-a]pyrazin-8-yl)amino)-1H-pyrazol-1-yl)-3-fluoropiperidin-1-yl)ethyl)piperazin-1-yl)phenyl) piperidine-2,6-dione] | 24 | 0.51
7 | O=C1CCC(c2ccc(N3CCN(CCN4CCC(n5cc(Nc6ncc(-c7ccccc7F)n7ccnc67)cn5)CC4)CC3)cc2)C(=O)N1 (stereo not drawn) [Compound 75, 3-(4-(4-(2-(4-(4-((5-(2-fluorophenyl)imidazo [1,2-a]pyrazin-8-yl)amino)-1H-pyrazol-1-yl)piperidin-1-yl)ethyl)piperazin-1-yl)phenyl) piperidine-2,6-dione] | 25 | 4.1
8 | Cc1cccc(-c2cnc(Nc3cnn(C4CCN(CCCN5CCN(c6ccc(C7CCC(=O)NC7=O)cc6)CC5)CC4)c3)c3nccn23)c1 (stereo not drawn) [Compound 4, 3-(4-(4-(3-(4-(4-((5-(m-tolyl)imidazo[1,2-a]pyrazin-8-yl)amino)-1H-pyrazol-1-yl)piperidin-1-yl)propyl)piperazin-1-yl)phenyl) piperidine-2,6-dione] | 13 | 4
9 | Cc1cccc(-c2cnc(Nc3cnn(C4CCN(CC(=O)N5CCN(c6ccc7c(c6)CN(C6CCC(=O)NC6=O)C7=O)CC5)CC4)c3)c3nccn23)c1 (stereo not drawn) [Compound 19, 3-(1-oxo-5-(4-(2-(4-(4-((5-(m-tolyl)imidazo[1,2-a]pyrazin-8-yl)amino)-1H-pyrazol-1-yl)piperidin-1-yl)acetyl)piperazin-1-yl)isoindolin-2-yl)piperidine-2,6-dione] | 18 | 12
10 | Cc1cccc(-c2cnc(Nc3cnn(C4CCN(CC(=O)N5CCN(c6ccc7c(c6)C(=O)N(C6CCC(=O)NC6=O)C7=O)CC5)CC4)c3)c3nccn23)c1 (stereo not drawn) [Compound 1, 2-(2,6-dioxopiperidin-3-yl)-5-(4-(2-(4-(4-((5-(m-tolyl)imidazo[1,2-a]pyrazin-8-yl)amino)-1H-pyrazol-1-yl)piperidin-1-yl)acetyl)piperazin-1-yl)isoindoline-1,3-dione] | 31 | 39
11 | O=C1CCC(c2ccc(N3CCN(CCN4CCC(n5cc(Nc6ncc(-c7ccc(F)cc7)n7ccnc67)cn5)CC4)CC3)cc2)C(=O)N1 (stereo not drawn) [Compound 74, 3-(4-(4-(2-(4-(4-((5-(4-fluorophenyl)imidazo [1,2-a]pyrazin-8-yl)amino)-1H-pyrazol-1-yl)piperidin-1-yl)ethyl)piperazin-1-yl)phenyl) piperidine-2,6-dione] | 26 | 1
12 | Cc1cc(-c2cnc(Nc3cnn([C@H]4CC[C@H](CCN5CCN(c6ccc([C@]7(C)CCC(=O)NC7=O)cc6)CC5)CC4)c3)c3nccn23)c(F)cc1F [Compound 82, (S)-3-(4-(4-(2-((trans)-4-(4-((5-(2,4-difluoro-5-methylphenyl)imidazo[1,2-a]pyrazin-8-yl)amino)-1H-pyrazol-1-yl)cyclohexyl)ethyl)piperazin-1-yl)phenyl)-3-methylpiperidine-2,6-dione] | 66 | –
13 | Cc1cc(-c2cnc(Nc3cnn(C4CCN(CCN5CCN(c6ccc([C@@]7(C)CCC(=O)NC7=O)cc6)CC5)CC4)c3)c3nccn23)c(F)cc1F [Compound 77, (R)-3-(4-(4-(2-(4-(4-((5-(2,4-difluoro-5-methylphenyl)imdazo [1,2-a]pyrazin-8-yl)amino)-1H-pyrazol-1-yl)piperidin-1-yl)ethyl)piperazin-1-yl)phenyl)-3-methylpiperidine-2,6-dione] | 27 | 1.1
14 | Cc1cccc(-c2cnc(Nc3cnn(C4CCN(CCCCN5CCN(c6ccc(C7CCC(=O)NC7=O)cc6)CC5)CC4)c3)c3nccn23)c1 (stereo not drawn) [Compound 3, 3-(4-(4-(4-(4-(4-((5-(m-tolyl)imidazo[1,2-a]pyrazin-8-yl)amino)-1H-pyrazol-1-yl)piperidin-1-yl)butyl)piperazin-1-yl)phenyl) piperidine-2,6-dione] | 15 | 3

From patent US20260216347A1, “Substituted Imidazo-Based Compounds as Ligand Directed Degraders of IRAK3” (Celgene Corporation, priority 2022, published 2026)
